Source: patent publication US11040038B2, “Methods for treating diseases associated with abnormal ACVR1 expression and ACVR1 inhibitors for use in the same” (Sumitomo Dainippon Pharma Oncology, Inc., priority 2018, dated 2021)
Several values for one entry are separate records, joined by “and”; a condition that tells them apart may be missing. Equal entries are not always repeated. Where two headings read alike, the source gives them in different places.

How the values were obtained:
[1] = test system: ACVR1 mutant (G328V mutated cell line) and wild type DIPG cell lines; experiment: Proliferation assay against DIPG cell lines; assay type: cell-based; conditions: ACVR1 G328V mutant vs wild type DIPG cell lines
Procedure: Compound 2 was tested in a proliferation assay against ACVR1 mutant (G328V mutated cell line) and wild type DIPG cell lines in vitro.

[2] = Pharmacokinetics and relative bioavailability after a single oral dose (two liquid formulations, powder in capsule); assay type: in vivo, male Beagle dogs; conditions: for Kel / MRTobs / AUC0-TLast / AUC0-∞ / CL/F / Cmax / t1/2 / AUC(0-inf) / Tmax / half-life / AUC(0-t) / Vd/F: plasma; for AUC(0-t): read-out: AUC0-TLast; for Vd/F: read-out: Vz/F
From the text: The purpose of the study is to dose two suspension formulations of Compound 2 at two dose levels by gavage to Beagle dogs and to collect blood samples for the determination of plasma concentrations, derivation of pharmacokinetic parameters and to determine the relative bioavailability of the two suspension formulations. The pharmacokinetics of Compound 2 would be evaluated following oral administration in capsules and the relative bioavailability of this dosage form to the oral liquid formulations was determined.
This study involves the dosing of the test item by the oral route over three periods separated by a 7 days washout period as outlined in Table 43, Table 44, and Table 45. The third period of the study outlined in Table 45 is considered to be optional and will only be performed at the Sponsor's request. Prior to the day of dosing, food will be removed from the dogs at 4:00 pm and reintroduced 2 hrs after dosing.
For oral administration of the formulations, the test item was administered via a stomach tube followed by the administration of 10 mL of tap water. For oral administration of capsules, the capsule was placed on the back of the tongue to encourage swallowing followed by administration of 10 mL of tap water. The oral cavity was then be inspected to make sure the capsule was swallowed. The actual volume of dosing formulation administered will be calculated based on the animal's most recently scheduled body weight.
The pharmacokinetic parameters for Compound 2 in solution as Formulation #1 (Table 43) and Formulation #2 (Table 44) along with data for the dosing of Compound 2 powder in capsule (Table 45) are presented in Table 46.

[3] = Formulation #1 (Table 43), 2 mg/kg oral, male Beagle dogs, Mean
[4] = Formulation #1 (Table 43), 2 mg/kg oral, male Beagle dogs, individual dog, 2 mg/kg
[5] = Formulation #1 (Table 43), 5 mg/kg oral, male Beagle dogs, Mean
[6] = Formulation #1 (Table 43), 5 mg/kg oral, male Beagle dogs, individual dog, 5 mg/kg
[7] = Formulation #2 (Table 44), 2 mg/kg oral, male Beagle dogs, Mean
[8] = Formulation #2 (Table 44), 2 mg/kg oral, male Beagle dogs, individual dog, 2 mg/kg
[9] = Formulation #2 (Table 44), 5 mg/kg oral, male Beagle dogs, Mean
[10] = Formulation #2 (Table 44), 5 mg/kg oral, male Beagle dogs, individual dog, 5 mg/kg
[11] = Powder in Capsule (Table 45), 2 mg/kg oral, male Beagle dogs, Mean
[12] = Powder in Capsule (Table 45), 2 mg/kg oral, male Beagle dogs, individual dog, 2 mg/kg
[13] = Powder in Capsule (Table 45), 5 mg/kg oral, male Beagle dogs, Mean
[14] = Powder in Capsule (Table 45), 5 mg/kg oral, male Beagle dogs, individual dog, 5 mg/kg
[15] = male, Beagle, dog, po, 2 mg/kg, Formulation #1 (Table 43), 2 mg/kg oral, male Beagle dogs, Mean
[16] = male, Beagle, dog, po, 2 mg/kg, Formulation #1 (Table 43), 2 mg/kg oral, male Beagle dogs, individual dog
[17] = male, Beagle, dog, po, 2 mg/kg, Formulation #2 (Table 44), 2 mg/kg oral, male Beagle dogs, Mean
[18] = male, Beagle, dog, po, 2 mg/kg, Formulation #2 (Table 44), 2 mg/kg oral, male Beagle dogs, individual dog
[19] = male, Beagle, dog, po, 2 mg/kg, Powder in Capsule (Table 45), 2 mg/kg oral, male Beagle dogs, Mean
[20] = male, Beagle, dog, po, 2 mg/kg, Powder in Capsule (Table 45), 2 mg/kg oral, male Beagle dogs, individual dog
[21] = male, Beagle, dog, po, 5 mg/kg, Formulation #1 (Table 43), 5 mg/kg oral, male Beagle dogs, Mean
[22] = male, Beagle, dog, po, 5 mg/kg, Formulation #1 (Table 43), 5 mg/kg oral, male Beagle dogs, individual dog
[23] = male, Beagle, dog, po, 5 mg/kg, Formulation #2 (Table 44), 5 mg/kg oral, male Beagle dogs, Mean
[24] = male, Beagle, dog, po, 5 mg/kg, Formulation #2 (Table 44), 5 mg/kg oral, male Beagle dogs, individual dog
[25] = male, Beagle, dog, po, 5 mg/kg, Powder in Capsule (Table 45), 5 mg/kg oral, male Beagle dogs, Mean
[26] = male, Beagle, dog, po, 5 mg/kg, Powder in Capsule (Table 45), 5 mg/kg oral, male Beagle dogs, individual dog

Kel [2, 3]: 0.124 h⁻¹
MRTobs [2, 3]: 9.32 h
AUC0-TLast [2, 4]: 87 ng·h/mL and 77 ng·h/mL
AUC0-∞ [2, 4]: 92 ng·h/mL and 82 ng·h/mL
CL/F [2, 4]: 367 mL/min/kg and 400 mL/min/kg
Cmax [2, 4]: 8.69 ng/mL and 7.27 ng/mL
MRTobs [2, 4]: 10.05 h and 8.64 h and 9.26 h
t1/2 [2, 4]: 5.2 h
Kel [2, 5]: 0.138 h⁻¹
MRTobs [2, 5]: 8.71 h
AUC0-∞ [2, 6]: 204 ng·h/mL and 475 ng·h/mL
CL/F [2, 6]: 417 mL/min/kg and 183 mL/min/kg
MRTobs [2, 6]: 9.72 h and 8.6 h and 7.82 h
t1/2 [2, 6]: 5.1 h and 4.3 h
Kel [2, 7]: 0.150 h⁻¹
MRTobs [2, 7]: 8.49 h
AUC0-TLast [2, 8]: 115 ng·h/mL and 44 ng·h/mL
CL/F [2, 8]: 217 mL/min/kg and 283 mL/min/kg and 717 mL/min/kg
MRTobs [2, 8]: 7.31 h and 9.2 h and 8.96 h
t1/2 [2, 8]: 4.8 h and 5.5 h
Kel [2, 9]: 0.142 h⁻¹
MRTobs [2, 9]: 8.28 h
CL/F [2, 10]: 517 mL/min/kg and 233 mL/min/kg and 567 mL/min/kg
MRTobs [2, 10]: 8.44 h and 8.7 h and 7.71 h
t1/2 [2, 10]: 4.9 h and 4.5 h
Kel [2, 11]: 0.304 h⁻¹
MRTobs [2, 11]: 5.23 h
AUC0-∞ [2, 12]: 58 ng·h/mL and 122 ng·h/mL
CL/F [2, 12]: 583 mL/min/kg and 267 mL/min/kg
Kel [2, 12]: 0.293 h⁻¹ and 0.314 h⁻¹
MRTobs [2, 12]: 5.15 h and 5.30 h
t1/2 [2, 12]: 2.2 h
Kel [2, 13]: 0.233 h⁻¹
MRTobs [2, 13]: 6.44 h
AUC0-TLast [2, 14]: 139 ng·h/mL and 107 ng·h/mL
AUC0-∞ [2, 14]: 142 ng·h/mL and 122 ng·h/mL
CL/F [2, 14]: 583 mL/min/kg and 683 mL/min/kg
MRTobs [2, 14]: 5.79 h and 7.62 h and 5.92 h
t1/2 [2, 14]: 3.8 h
time of appearance in the plasma post dosing ([2]; beagle dogs, oral, all formulations): ≤ 0.5 h
Cmax ([2]; male, Beagle, dog, po, 2 mg/kg, 2 mg/kg oral, range across Formulation #1, #2 and powder in capsules, read-out: mean Cmax): 6.78 to 14.9 ng/mL
AUC(0-inf) [2, 15]: 74 ng·h/mL
Tmax [2, 15]: 4.7 h
half-life [2, 15]: 336 min
AUC(0-inf) [2, 16]: 49 ng·h/mL
Tmax [2, 16]: 5 h
half-life [2, 16]: 360 min
AUC(0-t) [2, 15]: 70 ng·h/mL
CL/F ([2]; male, Beagle, dog, po, 2 mg/kg, Formulation #1 (Table 43), 2 mg/kg oral, male Beagle dogs, Mean, read-out: CL/F (converted)): 483 mL/min/kg
Cmax ([2]; male, Beagle, dog, po, 2 mg/kg, Formulation #1 (Table 43), 2 mg/kg oral, male Beagle dogs, Mean, read-out: Cmax): 6.78 ng/mL
Vd/F [2, 15]: 237 L/kg
AUC(0-t) [2, 16]: 45 ng·h/mL
CL/F ([2]; male, Beagle, dog, po, 2 mg/kg, Formulation #1 (Table 43), 2 mg/kg oral, male Beagle dogs, individual dog, read-out: CL/F (converted)): 683 mL/min/kg
Cmax ([2]; male, Beagle, dog, po, 2 mg/kg, Formulation #1 (Table 43), 2 mg/kg oral, male Beagle dogs, individual dog, read-out: Cmax): 4.37 ng/mL
AUC(0-inf) [2, 17]: 105 ng·h/mL
Tmax [2, 17]: 4.7 h
half-life [2, 17]: 282 min
Tmax [2, 18]: 4 h
half-life [2, 18]: 234 min
AUC(0-t) [2, 17]: 102 ng·h/mL
CL/F ([2]; male, Beagle, dog, po, 2 mg/kg, Formulation #2 (Table 44), 2 mg/kg oral, male Beagle dogs, Mean, read-out: CL/F (converted)): 400 mL/min/kg
Cmax ([2]; male, Beagle, dog, po, 2 mg/kg, Formulation #2 (Table 44), 2 mg/kg oral, male Beagle dogs, Mean, read-out: Cmax): 11.6 ng/mL
Vd/F [2, 17]: 177 L/kg
AUC(0-inf) [2, 19]: 90 ng·h/mL
Tmax [2, 19]: 3 h
half-life [2, 19]: 138 min
Tmax [2, 20]: 3 h
half-life [2, 20]: 144 min
AUC(0-t) [2, 19]: 71 ng·h/mL
CL/F ([2]; male, Beagle, dog, po, 2 mg/kg, Powder in Capsule (Table 45), 2 mg/kg oral, male Beagle dogs, Mean, read-out: CL/F (converted)): 417 mL/min/kg
Cmax ([2]; male, Beagle, dog, po, 2 mg/kg, Powder in Capsule (Table 45), 2 mg/kg oral, male Beagle dogs, Mean, read-out: Cmax): 14.9 ng/mL
Vd/F [2, 19]: 85 L/kg
Cmax ([2]; male, Beagle, dog, po, 5 mg/kg, 5 mg/kg oral, range across Formulation #1, #2 and powder in capsules, read-out: mean Cmax): 22.2 to 27.8 ng/mL
AUC(0-inf) [2, 21]: 294 ng·h/mL
Tmax [2, 21]: 3.7 h
half-life [2, 21]: 306 min
Tmax [2, 22]: 4 h
half-life [2, 22]: 360 min
AUC(0-t) [2, 21]: 280 ng·h/mL
CL/F ([2]; male, Beagle, dog, po, 5 mg/kg, Formulation #1 (Table 43), 5 mg/kg oral, male Beagle dogs, Mean, read-out: CL/F (converted)): 333 mL/min/kg
Cmax ([2]; male, Beagle, dog, po, 5 mg/kg, Formulation #1 (Table 43), 5 mg/kg oral, male Beagle dogs, Mean, read-out: Cmax): 27.8 ng/mL
Vd/F [2, 21]: 147 L/kg
AUC(0-inf) [2, 23]: 221 ng·h/mL
Tmax [2, 23]: 3.7 h
half-life [2, 23]: 294 min
Tmax [2, 24]: 3 h
half-life [2, 24]: 324 min
AUC(0-t) [2, 23]: 211 ng·h/mL
CL/F ([2]; male, Beagle, dog, po, 5 mg/kg, Formulation #2 (Table 44), 5 mg/kg oral, male Beagle dogs, Mean, read-out: CL/F (converted)): 450 mL/min/kg
Cmax ([2]; male, Beagle, dog, po, 5 mg/kg, Formulation #2 (Table 44), 5 mg/kg oral, male Beagle dogs, Mean, read-out: Cmax): 22.2 ng/mL
Vd/F [2, 23]: 188 L/kg
AUC(0-inf) [2, 25]: 160 ng·h/mL
Tmax [2, 25]: 4.3 h
half-life [2, 25]: 186 min
AUC(0-inf) [2, 26]: 215 ng·h/mL
Tmax [2, 26]: 3 h
half-life [2, 26]: 162 min
AUC(0-t) [2, 25]: 146 ng·h/mL
CL/F ([2]; male, Beagle, dog, po, 5 mg/kg, Powder in Capsule (Table 45), 5 mg/kg oral, male Beagle dogs, Mean, read-out: CL/F (converted)): 550 mL/min/kg
Cmax ([2]; male, Beagle, dog, po, 5 mg/kg, Powder in Capsule (Table 45), 5 mg/kg oral, male Beagle dogs, Mean, read-out: Cmax): 25.6 ng/mL
Vd/F [2, 25]: 147 L/kg
AUC(0-t) [2, 26]: 191 ng·h/mL
CL/F ([2]; male, Beagle, dog, po, 5 mg/kg, Powder in Capsule (Table 45), 5 mg/kg oral, male Beagle dogs, individual dog, read-out: CL/F (converted)): 383 mL/min/kg
Tmax ([2]; male, Beagle, dog, po, 5 mg/kg, beagle dogs, range across formulations at both doses (2 and 5 mg/kg)): 3 to 4.7 h
SMILES: COc1cc(Nc2nccc(Nc3cccnc3-c3ccccn3)n2)ccc1N1CCN(C)CC1 [Compound 2, N^4-(2,2′-bipyridin-3-yl)-N^2-(3-methoxy-4-(4-methylpiperazin-1-yl)phenyl)pyrimidine-2,4-diamine]
Activity in proliferation assay [1]: selective activity against the mutated cell line
Kel [2, 4]: 0.116 h⁻¹ and 0.133 h⁻¹ and 0.124 h⁻¹
AUC0-TLast [2, 6]: 190 ng·h/mL and 453 ng·h/mL and 198 ng·h/mL
Cmax [2, 6]: 15.51 ng/mL and 46.76 ng/mL and 21.15 ng/mL
Kel [2, 6]: 0.115 h⁻¹ and 0.136 h⁻¹ and 0.162 h⁻¹
AUC0-∞ [2, 8]: 148 ng·h/mL and 120 ng·h/mL and 47 ng·h/mL
Cmax [2, 8]: 19.72 ng/mL and 10.43 ng/mL and 4.59 ng/mL
Kel [2, 8]: 0.179 h⁻¹ and 0.145 h⁻¹ and 0.125 h⁻¹
AUC0-TLast [2, 10]: 151 ng·h/mL and 342 ng·h/mL and 141 ng·h/mL
AUC0-∞ [2, 10]: 159 ng·h/mL and 357 ng·h/mL and 146 ng·h/mL
Cmax [2, 10]: 17.70 ng/mL and 34.08 ng/mL and 14.91 ng/mL
Kel [2, 10]: 0.129 h⁻¹ and 0.142 h⁻¹ and 0.153 h⁻¹
AUC0-TLast [2, 12]: 53 ng·h/mL and 49 ng·h/mL and 112 ng·h/mL
Cmax [2, 12]: 9.55 ng/mL and 13.83 ng/mL and 21.31 ng/mL
Cmax [2, 14]: 43.79 ng/mL and 14.66 ng/mL and 18.21 ng/mL
Kel [2, 14]: 0.255 h⁻¹ and 0.183 h⁻¹ and 0.261 h⁻¹
